Results on 20 molecules are retold here after PubChem BioAssay AID504655 (Southern Research Specialized Biocontainment Screening …, 2011).

The source made the active and inactive calls. How the calls were made is not given here.

As usually defined, the IC50 is the midpoint of a concentration-inhibition curve.

For this test, the system named is HEp-2 cells, RSV CPE inhibition, cell viability. As to the kind of experiment: protection of HEp-2 cells from RSV – synthesized compounds, set 7, dose response (AID 504655).

Take `Cc1ccc(Cn2c(=O)n(Cc3ccc(C(=O)NC4CCCCC4)cc3)c(=O)c3ccccc32)cc1`: the IC50 is > 50 µM (inactive). As to `Cc1ccc(Cl)cc1NC(=O)[C@@H]1CCCN1S(=O)(=O)c1cccc2cccnc12`, the IC50 was 6.11 µM. In the case of `COCCCNC(=O)c1ccc(Cn2c(=O)c3ccc(C)cc3n(Cc3ccc(C)cc3)c2=O)cc1`, the IC50 was > 50 µM (inactive). Regarding `O=C(NCc1cccc(Cl)c1)C1CCN(S(=O)(=O)c2cccc3nonc23)CC1`, the IC50 was > 50 µM (inactive). The value for `Cc1ccc(Cn2c(=O)n(Cc3ccc(C(=O)NCc4ccccc4)cc3)c(=O)c3ccccc32)cc1` was > 50 µM (inactive). Regarding `CNC(=O)c1ccc(Cn2c(=O)c3ccccc3n(Cc3ccc(C)cc3)c2=O)cc1`, the 50% inhibitory concentration (IC50) was 2.26 µM. Turning to `Cc1ccc(Cn2c(=O)n(Cc3ccc(C(=O)N4CCCCC4)cc3)c(=O)c3ccccc32)cc1`, the IC50 was > 50 µM (inactive). Consider `COCCCNC(=O)c1ccc(Cn2c(=O)c3ccc(C(F)(F)F)cc3n(Cc3ccc(C)cc3)c2=O)cc1`, for which the IC50 is > 50 µM (inactive). `Cc1ccc(Cn2c(=O)n(Cc3ccc(C(=O)N4CCCC4)cc3)c(=O)c3ccccc32)cc1`: the IC50 is > 50 µM (inactive). To `COCCNC(=O)c1ccc(Cn2c(=O)c3ccccc3n(Cc3ccc(C)cc3)c2=O)cc1` belongs 3.05 µM; to `COc1ccc(C)c(NC(=O)[C@@H]2CCCN2S(=O)(=O)c2cccc3cccnc23)c1`, 9.33 µM. To `Cc1ccc(CNC(=O)C2CCN(S(=O)(=O)c3cccc4nonc34)CC2)c(C)c1` belongs > 50 µM (inactive); to `COc1ccccc1CNC(=O)[C@@H]1CCCN1S(=O)(=O)c1cccc2nonc12`, > 50 µM (inactive). In the case of `COCCCNC(=O)c1ccc(Cn2c(=O)c3ccc(OC)cc3n(Cc3ccc(C)cc3)c2=O)cc1`, the IC50 was > 50 µM (inactive). For the molecule `COc1ccccc1NC(=O)[C@@H]1CCCN1S(=O)(=O)c1cccc2nonc12`, the IC50 is > 50 µM (inactive). With `Cc1ccc(NC(=O)[C@@H]2CCCN2S(=O)(=O)c2cccc3nonc23)c(C)c1`, the IC50 is > 50 µM (inactive). Turning to `O=C(NCc1ccc(Cl)cc1)C1CCN(S(=O)(=O)c2cccc3nonc23)CC1`, the IC50 was > 50 µM (inactive).

Regarding `Cc1ccc(Cn2c(=O)n(Cc3ccc(C(=O)N(C)C)cc3)c(=O)c3ccccc32)cc1`, the IC50 was > 50 µM (inactive). To `Cc1ccc(Cn2c(=O)n(Cc3ccc(C(=O)N4CCOCC4)cc3)c(=O)c3ccccc32)cc1` belongs > 50 µM (inactive); to `Cc1ccc(Cn2c(=O)n(Cc3ccc(C(=O)Nc4ccccc4)cc3)c(=O)c3ccccc32)cc1`, > 50 µM (inactive).
